Data taken from patent EP1434624B1, “2-AMINO-6-(2,4,5-SUBSTITUTED-PHENYL)-PYRIDINES FOR USE AS NITRIC OXIDE SYNTHASE INHIBITORS” (Pfizer Products Inc., priority 2001, dated 2003).
Like-named read-outs stand apart in the source and are kept apart here.

Molecular target: neuronal NOS (Homo sapiens, UniProt P29475)
Assay: Inhibition of NO synthase activity by conversion of [3H]arginine to [3H]citrulline (crude enzyme lysate)
Format: biochemical
Protocol: The ability of the compounds of the present invention to inhibit neuronal NOS may be determined using the procedure described by Bredt and Snyder in Proc. Natl. Acad. Sci. U.S.A., 87, 682-685 (1990).
As indicated above, inhibition of NO synthase activity may be determined by conversion of [^3H]arginine to [^3H]citrulline as described by Bredt and Snyder in Proc. Natl. Acad. Sci. U.S.A., 87, 682-685 (1990), but with slight modification. Specifically, 10 uL of crude enzyme lysate and 10 uL of 350 nM [^3H]arginine are added to 100 uL of buffer containing 10 mM Hepes, 0.32 M sucrose, 0.75 mM NADPH, 0.1 mM EDTA, 0.63 mM CaCl2, 1 mM dithiothreitol, 30 nM calmodulin(CaM), 2 uM Flavin Adenin dinucleotie (FAD), 2 uM Flavin mononucleotide (FMN), 3 uM tetrahydrobiopterin (H4B) and trace bovine serum albumin in 96-well plate format. After incubation for 50 minutes at 30°C, assays are terminated by application to 75 uL BioRex-70 resin (H^+ form) and eluted with 90 uL of water. [^3H]citrulline may be quantified by liquid scintillation spectroscopy of the total flow-through.

neuronal NOS, sequence (P29475 whole entry): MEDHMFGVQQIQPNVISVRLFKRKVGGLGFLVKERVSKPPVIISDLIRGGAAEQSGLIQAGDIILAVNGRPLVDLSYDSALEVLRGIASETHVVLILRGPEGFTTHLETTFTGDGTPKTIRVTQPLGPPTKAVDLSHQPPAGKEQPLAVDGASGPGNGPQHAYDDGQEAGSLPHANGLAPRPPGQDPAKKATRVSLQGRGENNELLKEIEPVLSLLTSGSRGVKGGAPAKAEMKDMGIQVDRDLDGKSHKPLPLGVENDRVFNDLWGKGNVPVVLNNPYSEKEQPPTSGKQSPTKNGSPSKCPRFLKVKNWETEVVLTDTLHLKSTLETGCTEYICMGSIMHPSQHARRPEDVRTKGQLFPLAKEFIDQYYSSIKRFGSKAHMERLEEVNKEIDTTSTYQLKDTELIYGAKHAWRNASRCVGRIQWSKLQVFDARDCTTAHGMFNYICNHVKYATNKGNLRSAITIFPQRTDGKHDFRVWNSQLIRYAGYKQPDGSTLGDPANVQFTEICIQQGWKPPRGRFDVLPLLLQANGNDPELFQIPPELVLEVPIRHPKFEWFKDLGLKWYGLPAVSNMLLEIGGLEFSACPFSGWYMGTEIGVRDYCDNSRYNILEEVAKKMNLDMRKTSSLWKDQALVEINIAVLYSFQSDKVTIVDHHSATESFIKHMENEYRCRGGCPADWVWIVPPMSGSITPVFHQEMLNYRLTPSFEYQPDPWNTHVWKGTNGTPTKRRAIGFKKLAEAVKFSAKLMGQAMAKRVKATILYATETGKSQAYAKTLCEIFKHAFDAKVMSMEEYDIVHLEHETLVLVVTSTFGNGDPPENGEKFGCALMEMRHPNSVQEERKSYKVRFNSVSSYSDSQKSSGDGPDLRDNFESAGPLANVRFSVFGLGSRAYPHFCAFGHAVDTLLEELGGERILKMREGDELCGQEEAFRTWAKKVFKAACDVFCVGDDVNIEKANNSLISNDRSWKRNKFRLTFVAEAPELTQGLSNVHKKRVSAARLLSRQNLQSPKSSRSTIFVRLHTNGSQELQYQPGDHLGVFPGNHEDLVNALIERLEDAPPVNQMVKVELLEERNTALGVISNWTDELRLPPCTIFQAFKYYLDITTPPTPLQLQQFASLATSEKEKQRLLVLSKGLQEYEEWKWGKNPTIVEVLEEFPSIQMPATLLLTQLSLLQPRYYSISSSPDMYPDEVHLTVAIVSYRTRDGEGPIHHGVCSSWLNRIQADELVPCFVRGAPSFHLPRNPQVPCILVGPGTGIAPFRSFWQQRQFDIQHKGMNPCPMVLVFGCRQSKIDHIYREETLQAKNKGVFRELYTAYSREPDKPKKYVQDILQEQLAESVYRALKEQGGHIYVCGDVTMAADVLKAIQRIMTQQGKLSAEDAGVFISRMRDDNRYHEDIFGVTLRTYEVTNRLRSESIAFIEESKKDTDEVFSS

`CCc1cc(-c2cccc(N)n2)c(OC)cc1OC1CNC1` [Example 1, 6-[4-(3-azetidinoxy)-5-ethyl-2-methoxy-phenyl]-pyridin-2-ylamine] was tested, and the IC50 (crude enzyme lysate, [3H]arginine to [3H]citrulline, 50 minutes at 30°C, read-out: IC50 for inhibition of neuronal NOS) was 36 nM.

`CCc1cc(-c2cccc(N)n2)c(OC)cc1CNC` [Example 3, 6-[4-(N-methylaminomethyl)-5-ethyl-2-methoxy-phenyl]-pyridin-2-ylamine] showed an IC50 of 30 nM.
